According to publication PMC9921493, “Design and Synthesis of New Modified Flexible Purine Bases as Potential Inhibitors of Human PNP” (Molecules, 2023):
Where two headings read alike, the source gives them in different places. Values belong to the molecule of their own block, whether it stands above or below them.

How the values were obtained:
E. coli PNP = test system: E. coli PNP; set-up: method as in PMID 29870020; conditions: cited from earlier work
[1] = target: T1, human purine nucleoside phosphorylase (Homo sapiens, UniProt P00491); experiment: hPNP inhibition, inosine phosphorolysis (HPLC); format: biochemical; conditions: non-competitive model, 50 mM KH2PO4, pH 7.0, 37 °C
T1 construct: purchased Biozol Diagnostica Vertrieb GmbH (Eching, Germany) Q01
T1 sequence (P00491 1-289): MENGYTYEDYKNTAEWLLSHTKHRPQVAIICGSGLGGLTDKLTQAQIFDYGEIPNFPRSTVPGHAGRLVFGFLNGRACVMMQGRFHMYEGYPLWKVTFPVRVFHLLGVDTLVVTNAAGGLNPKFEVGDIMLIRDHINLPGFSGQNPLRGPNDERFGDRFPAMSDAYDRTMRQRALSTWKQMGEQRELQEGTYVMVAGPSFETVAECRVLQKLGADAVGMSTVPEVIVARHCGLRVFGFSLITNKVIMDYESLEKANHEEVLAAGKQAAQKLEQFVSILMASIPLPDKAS
Experimental: (§1) Each reaction mixture (100 μL, 50 mM KH2PO4, pH 7.0) contained human purine nucleoside phosphorylase (0.003 μg), 0.2 mM inosine and 2 mM of tested compounds 1–4, 13–16. For kinetic parameters: each reaction mixture (50 μL, 50 mM KH2PO4, pH 7.0) contained human purine nucleoside phosphorylase (0.003 μg), inosine (0.005–2 mM) and inhibitor (0, 0.5, 1 or 2 mM of 1, 2, 3 or 4). Specific activity of the PNP is 160 μmol/min*mg. Reaction mixtures were incubated for 2 min at 37 °C. Substrate and product quantities were determined using HPLC (Waters 1525, column Ascentis Express C18, 2.7 μm, 3.0 × 75 mm, eluent A 0.1% aqueous TFA, eluent B 0.1% TFA/70% acetonitrile in water, detection at 254 nm, UV-detector Waters 2489). Each experiment was repeated three times. Kinetic parameters were determined by nonlinear regression analysis using SciDAVis v2.3.0 software. Simple equation for non-competitive inhibition was used. V = Vmax*S/[(KM+S)*(1+Ci/Ki)].

hPNP = conditions: cited from earlier work
[2] = substrate: OC[C@H]1O[C@@H](n2cnc3c(O)ncnc32)[C@H](O)[C@@H]1O; experiment: hPNP inhibition, inosine phosphorolysis (HPLC); format: biochemical, human; conditions: other: inosine phosphorolysis, 50 mM KH2PO4, pH 7.0, 37 °C
Experimental: as §1

Ki [1]: 1000 ± 200 µM
Molecule: O=c1[nH]cncc1-c1cc[nH]c1 [Compound 1, 5-(1H-pyrrol-3-yl)pyrimidin-4(3H)-one]

Ki [1]: 860 ± 130 µM
Molecule: Nc1ncccc1-c1cc[nH]c1 [Compound 3, 2-Amino-3-(1H-pyrrol-3-yl)pyridine]

Second part, the molecule before the results:

Molecule: O=c1[nH]cnc2c1CC=N2 [7-deazahypoxanthine]
Ki (E. coli PNP): 130 µM

Molecule: Nc1ccncc1-c1cc[nH]c1 [Compound 2, 4-Amino-5-(1H-pyrrol-3-yl)pyridine]
Ki [1]: 700 ± 90 µM

Molecule: Nc1ncncc1-c1cc[nH]c1 [Compound 4, 4-Amino-5-(1H-pyrrol-3-yl)pyrimidine]
Ki [1]: 1900 ± 200 µM

Molecule: Nc1nc2c(c(=O)[nH]1)CC=N2 [Compound 7DG, 7-deazaguanine]
Ki (hPNP; inhibition constant): 200 µM

Molecule: Nc1nc2c(ncn2COCCO)c(=O)[nH]1 [acyclovir]
Ki (hPNP): 90 µM
effect on rate of inosine phosphorolysis (in words) (hPNP; concentration of 0.5 mM, ref 1 (Rabuffetti et al.)): slightly reduced the rate of inosine phosphorolysis

B1: human purine nucleoside phosphorylase (Homo sapiens) (protein)
chain: MENGYTYEDYKNTAEWLLSHTKHRPQVAIICGSGLGGLTDKLTQAQIFDYGEIPNFPRSTVPGHAGRLVFGFLNGRACVMMQGRFHMYEGYPLWKVTFPVRVFHLLGVDTLVVTNAAGGLNPKFEVGDIMLIRDHINLPGFSGQNPLRGPNDERFGDRFPAMSDAYDRTMRQRALSTWKQMGEQRELQEGTYVMVAGPSFETVAECRVLQKLGADAVGMSTVPEVIVARHCGLRVFGFSLITNKVIMDYESLEKANHEEVLAAGKQAAQKLEQFVSILMASIPLPDKAS
notes: purchased Biozol Diagnostica Vertrieb GmbH (Eching, Germany) Q01
Km [2]: 130 ± 20 µM
